Assay results published in US5847193A, “Labelled compound” (priority 1995, dated 1998).

Key:
rat glioma = assay: Uptake of ^11 C-labelled L-DABA into rat glioma cells in culture; format: cell-based; conditions: medium with amino acid content close to the biological one, control phosphate-buffered saline, FIG. 7
Method: Biological applicability of the ^11 C-labelled L-DABA obtained in Example 3 was evaluated. The relationship between concentration of the L-DABA added to culture medium of rat glioma and uptake of radioactivity into the glioma cells in a given duration was investigated in a medium having an amino acid content close to the biological one, and for control, in a physiological saline buffered with phosphoric acid.

human or rat gliomacyte = conditions: cited from earlier work
[1] = Sterility and exothermic substance check of the filtered ^11 C-labelled glutamic acid product; conditions: after sterilized 0.2 μm filter
Method: NaOH of 2.5M was added to a reaction solution containing the γ-cyano-α-aminobutyric acid of which cyano group carbon being labelled with positron nuclide ^11 C, as obtained in Example 6, and temperature of the mixture was raised to 135° C. After the lapse of 15 minutes, the reaction solution was mixed with 8 ml 50 mM NaH2 PO4, and the resultant mixture was passed through an anion exchange resin (800 mg AGI-x8 200-400 mesh hydroxide form). After washing with 50 mM NaH2 PO4 in an amount of 6 ml, the reaction product was eluted with 150 mM NaH2 PO4 (pH adjusted to 2.8 with phosphoric acid), and the elute was received in a receptacle containing 150 μl 8.5% phosphoric acid. The contents were passed through a sterilized filter having a pore diameter of 0.2 μm for collection in bial.

Compound	incorporation into gliomacyte (human or rat gliomacyte)	further results
N[11CH2]C[C@H](N)C(=O)O [^11 C-labelled L-DABA, L-2,4-diaminobutyric acid (L-DABA) labelled with ^11 C]	–	uptake of radioactivity into the glioma cells (rat glioma): dependent on the concentration of it in culture medium
N[C@@H](CCC(=O)O)C(=O)O [L-glutamic acid]	found to be incorporated into human or rat gliomacyte	–
N[C@@H](CC[11C](=O)O)C(=O)O [^11 C-labelled glutamic acid]	–	exothermic substance [1]: no exothermic substance was detected; sterility of product [1]: germ-free
NCCC(N)C(=O)O (stereo not drawn) [2,4-Diaminobutyric acid (DABA), 2,4-Diaminobutyric acid]	found to be incorporated into human or rat gliomacyte	–
NC(=O)CC[C@H](N)C(=O)O [L-glutamine]	found to be incorporated into human or rat gliomacyte	–
